For series [1], the system named is STING signaling (IRF and NFKB-pathway activation) in THP1 Dual Cells. Put plainly: THP-1 assay (THP1 Dual reporter cells, IRF / NFkB pathway activation). Format: cell-based. Particulars: for pEC50: Homo sapiens, THP1 Dual cells. The method, then: THP1 Dual Cells™, were purchased from Invivogen (Cat. thpd-nfis), and used to determine the biological activity of the compounds on a molecular level and to determine downstream activation of STING signaling (IRF and NFKB-pathway activation). Briefly, cultured cells were seeded on the day of the experiment with a density of 1×10^5 cells per well (96-well format in RPMI supplemented with 25 mM HEPES, 10% heat inactivated FCS,). A serial dilution of the compounds was prepared and added to the cells for a total incubation time of 24 hours. The test items were tested in 8 concentrations to determine a dose-dependent activation of the NFKB and the IRF pathway. After 24 h cells were centrifuged and supernatants harvested for the detection of secreted alkaline phosphatase (measured by QUANTI-Blue™ detection solution; Cat. rep-qbs Invivogen) or lucia luciferase (measured by QUANTI-Luc™ reagent; Cat. rep-qlc1, Invivogen), respectively. The read outs were be performed according to the manufacturer's instructions. EC50 values were calculated using GraphPad Prism 9.

The test system of series [2] is HEK293 cells with a knocked-in STING receptor (IRF and IFNβ-pathway activation). Briefly: HEK STING assay with and without PFO (membrane permeabilization). Particulars: for pEC50 / EC50: Homo sapiens; for pEC50: read-out: HEK IRF EC50. The class given is cell-based.
A short description of series [3]: Solubility in PBS and HEPES buffer. The class given is physicochemical. Particulars: for solubility: aqueous buffer. The text has this:
The primary differences are that Compound XX is less hydrophobic as a result of the introduction of oxazolyl heterocyclic ring in place of the pyrazolyl heterocyclic ring of Compound XV and as a result of the introduction of an imidazopyridine ring in place of the benzimidazole ring of Compound XV.

The test system of series [4] is PBMCs from healthy donors. Put plainly: PBMC assay, dose-dependent cytokine induction. The class given is cell-based. Particulars: Homo sapiens, 24 h. The method, then:
Compounds I-A to IV were additionally tested on PBMCs from healthy donors to determine the dose-dependent cytokine induction. PBMCs from buffy coats were thawed on the day of the experiment and seeded with a density of 5×10^5 cells per well (96-well format, RPMI with 5% Human Serum+1% MEM Non-Essential Amino Acids+1% Sodium Pyruvate). In line with the experiment above, a serial dilution of the compounds was prepared and added to the cells for 24 hours. On the next days, cells were centrifuged and supernatants harvested for a cytokine readout based on a multiplex assay kit from mesoscale discovery (customized multiplex panel for the cytokines: IFNα2a, IFNβ, TNFα and IL6). Impact on cell viability was determined by CellTiter Glo2.0 from promega (Cat. G9241). Both experimental read outs were performed according to the manufacturer's instructions.

The target in the next series is T1, human STING (Homo sapiens, UniProt Q86WV6).
T1 construct: fused on or other part: His tag; chemically biotinylated (Sulfo-NHS-LC-Biotin) for capture on the chip
T1 sequence (Q86WV6 153-340 limits assumed): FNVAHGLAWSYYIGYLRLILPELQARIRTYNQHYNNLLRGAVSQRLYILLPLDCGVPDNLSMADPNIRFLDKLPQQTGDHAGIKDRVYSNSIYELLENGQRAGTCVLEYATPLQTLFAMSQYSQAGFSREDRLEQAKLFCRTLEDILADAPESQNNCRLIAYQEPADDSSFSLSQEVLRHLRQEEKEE
Briefly: Affinity measurement assay (Biacore T200 SPR). To be noted: biotinylated human STING, 25° C., 1:1 binding model, read-out: Affinity (Kd) rhSTING. The method, then: T7 Shuffle E. coli cells, transformed with an expression vector encoding either a truncated version of human or murine His-tagged STING, were cultivated overnight in 50 mL LB media. 200 mL of LB media were inoculated to an OD600 of 0.05 and cells were grown at 37° C. at 120 rpm until an OD600 of 0.5 was reached. Protein expression was induced using 1 mM IPTG and cells were further cultivated at 30° C. over night. Cells were harvested by centrifugation at 4000 rpm for 30 min at 4° C. and frozen at −80° C. Subsequently, cells were thawed and resuspended in 30 mL IMAC-Buffer A (10 mM HEPES, 50 mM NaCl, 10 mM Imidazole, 250 mM L-Arginine, 10% Glycerol, pH 7.1) supplemented with 15 U/mL benzonase, 0.2 mg/mL MgCl2 and 0.1 mg/mL lysozyme. Lysis was performed by five sonification cycles with an amplitude of 25% and a pulse for 2 s, with 5 min incubation on ice between cycles. The lysate was centrifuged for 15 min at 16.000 g and the supernatant was filtrated (0.22 μm). Purification of STING was done using an ÄKTA prime chromatography system. A 1 mL His Trap excel column was equilibrated with IMAC-Buffer A before lysate was applied. After washing with multiple column volumes of buffer, STING was eluted using a linear gradient of IMAC-Buffer B (10 mM HEPES, 50 mM NaCl, 500 mM Imidazole, 250 mM L-Arginine, 10% Glycerol, pH 7.1). Elution fractions were analyzed by SDS-PAGE and STING containing fractions were mixed. Using the Äkta pure system in combination with a HiLoad Superdex 16/600 75 pg column, STING was further purified by preparative size-exclusion chromatography. Fractions were analyzed by SDS-PAGE and STING containing fractions were combined.
Purified proteins were biotinylated using EZ-Link Sulfo-NHS-LC-Biotin (Life Technologies GmbH) in ten-fold excess for 2 h on ice. The reaction was quenched by addition of 100 mM Tris pH8 and 1 h incubation on ice. Remaining biotin was removed by performing buffer exchange to PBS using Zeba Spin Desalting Columns, 7K MWCO, 0.5 mL (Thermo Fischer). Protein concentrations were determined using the Nanodrop system.
Affinity measurement of STING-binding compounds were performed using the Biacore T200 SPR system (GE Healthcare, Biacore T200 control Software 3.2). Therefore, the Biotin CAPture kit, series S (Cytiva Europe, Cat.no. 28920234) was utilized. A freshly docked Biotin CAPture chip was rehydrated overnight in the instrument (standby mode). The following day, the chip surface was conditioned three times with regeneration solution (6 M guanidine-HCl, 0.25 M NaOH) for 60 s at 10 μL/min on flow cell (FC) 1 and FC2. Subsequently, the Biotin CAPture reagent (Cytiva Europe, Cat.no. 29423383) was applied for 300 s at 2 μL/min on FC1 and FC2, followed by capturing of 100 nM biotinylated murine or 150 nM biotinylated human STING, respectively. […]

[5] abbreviates: IRF pathway, read-out: THP-1 IRF EC50.
Setting [6] is: NFkB pathway, read-out: THP-1 NFkB EC50.
The mark [7] stands for this setting: HEK293, read-out: HEK STING EC50 no PFO [nM].
[8] abbreviates: HEK293, read-out: HEK STING EC50 with PFO [nM].
Where [9] appears, read: HEPES Buffer pH 7.0, read-out: Solubility HEPES Buffer pH 7.0.
[10] abbreviates: IFNα in supernatant, read-out: PBMC EC50 (μM) for IFNα.
The mark [11] stands for this setting: IFNβ in supernatant, read-out: PBMC EC50 (μM) for IFNβ.

Molecules are shown by their SMILES. pEC50, pKd: −log10 of the molar value. “And” between values parts separate entries of the source, which are not always exact repeats. Identical values can stand only once. Like-named read-outs stand apart in the source and are kept apart here.

As usually defined, the pEC50 is the negative decadic logarithm of the EC50, by convention in mol/L. In general, EC50 refers to the concentration at which the effect is half-maximal. The term solubility denotes the concentration that dissolves in the medium under given conditions. Usually pKd stands for −log10 of the Kd, conventionally taken in molar units.

Regarding `CCn1nc(C)cc1C(=O)Nc1nc2cc(CO)cc(OC)c2n1C/C=C/Cn1c(NC(=O)c2cc(C)nn2CC)nc2cc(C(N)=O)cc(OCCCN3CCOCC3)c21` [Compound XL, (E)-2-(1-ethyl-3-methyl-1H-pyrazole-5-carboxamido)-1-(4-(2-(1-ethyl-3-methyl-1H-pyrazole-5-carboxamido)-5-(hydroxymethyl)-7-methoxy-1H-benzo[d]imidazol-1-yl)but-2-en-1-yl)-7-(3-morpholinopropoxy)-1H-benzo[d]imidazole-5-carboxamide], the “THP-1 IRF MEC” value in series [1] (Activity w/o permeabilization) came out at 78 nM. The “THP-1 NFkB MEC” value in series [1] (Activity w/o permeabilization) is given as 78 nM. The pEC50 is 6.66 in series [1] (setting [5]); 6.83 in series [1] (setting [6]); 9.28 in series [2] (HEK293, Activity w/o permeabilization); 8.95 in series [2] (HEK293, Activity with permeabilization). Moreover, the “HEK IFNβ MEC” value turned out to be 0.8 nM in series [2] (Activity w/o permeabilization) and 4.0 nM in series [2] (Activity with permeabilization). The EC50 in series [2] (setting [7]) and in series [2] (setting [8]) was 2.7 nM throughout.

Regarding `CCn1nc(C)cc1C(=O)Nc1nc2cc(C(N)=O)cc(OC)c2n1C/C=C/Cn1c(NC(=O)c2cc(C)nn2CC)nc2cc(C(N)=O)cc(OCCCN(C)N)c21` [Compound XV], the “Solubility PBS Buffer pH 7.4” value in series [3] (PBS Buffer pH 7.4) was “<LOQ”; in series [3] (PBS Buffer pH 7.4, lower limit of quantitation 1 μM), “<LOQ^#”. Moreover, in series [3] (setting [9]), the solubility was 5.9 µM and 5 µg/mL.

On to `CCc1nc(C)oc1C(=O)Nc1nc2cc(C(N)=O)cnc2n1C/C=C/Cn1c(NC(=O)c2oc(C)nc2CC)nc2cc(C(N)=O)cc(OCCCN(C)N)c21` [Compound XX], for which the “Solubility versus Compound XV” value in series [3] (Compound XX compared with Compound XV) was “slightly better solubility”. The solubility is 11.5 µM and 10 µg/mL in series [3] (setting [9]); 3.6 µM in series [3] (PBS Buffer pH 7.4, lower limit of quantitation 1 μM, read-out: Solubility PBS Buffer pH 7.4); 3 µg/mL in series [3] (PBS Buffer pH 7.4, read-out: Solubility PBS Buffer pH 7.4).

For the compound `CCn1nc(C)cc1C(=O)Nc1nc2cc(C(=O)NNC)cc(OC)c2n1C/C=C/Cn1c(NC(=O)c2cc(C)nn2CC)nc2cc(C(N)=O)cc(OCCCN3CCOCC3)c21` [II-B], the EC50 was found to be 1.95 µM in series [4] (setting [10]) and 1.16 µM in series [4] (setting [11]). Moreover, the pKd on human STING was 9.02. Also, the pEC50 in series [1] (24 h incubation, IRF pathway, read-out: THP-1 EC50 (IRF)) was 5.56.

In the case of `CCn1nc(C)cc1C(=O)Nc1nc2cc(C(N)=O)cc(OC)c2n1C/C=C/Cn1c(NC(=O)c2cc(C)nn2CC)nc2cc(C(=O)NN)cc(OCCCN3CCOCC3)c21` [III], the EC50 in series [4] (setting [11]) stood at 0.387 µM. Besides, the pKd at human STING was 9.50.

Consider `CCn1nc(C)cc1C(=O)Nc1nc2cc(CN)cc(OC)c2n1C/C=C/Cn1c(NC(=O)c2cc(C)nn2CC)nc2cc(C(N)=O)cc(OCCCN3CCOCC3)c21` [Compound XLI, 1-[(2E)-4-[5-(Aminomethyl)-2-(1-ethyl-3-methyl-1H-pyrazole-5-amido)-7-methoxy-1H-1,3-benzodiazol-1-yl]but-2-en-1-yl]-2-(1-ethyl-3-methyl-1H-pyrazole-5-amido)-7-[3-(morpholin-4-yl)propoxy]-1H-1,3-benzodiazole-5-carboxamide], for which the pEC50 is 6.09 in series [1] (setting [5]) and 6.44 in series [1] (setting [6]). Further, the EC50 in series [2] (setting [7]) worked out at 38 nM; in series [2] (setting [8]) it was 25 nM.

With `CCn1nc(C)cc1C(=O)Nc1nc2cc(C(N)=O)cc(OC)c2n1C/C=C/Cn1c(NC(=O)c2cc(C)nn2CC)nc2cc(C(N)=O)cc(OCCCN3CCOCC3)c21` [diABZI, reference compound], the results for the pEC50 in series [1] (setting [5]) and in series [1] (setting [6]) were 7.80 and 7.85, respectively. Further, the EC50 came out at 1.6 nM in series [2] (setting [7]) and 1.2 nM in series [2] (setting [8]).

As for `CCn1nc(C)cc1C(=O)Nc1nc2cc(C(=O)N(C)NC)cc(OC)c2n1C/C=C/Cn1c(NC(=O)c2cc(C)nn2CC)nc2cc(C(N)=O)cc(OCCCN3CCOCC3)c21` [II-D], the EC50 in series [4] (setting [10]) was found to be 1.14 µM; in series [4] (setting [11]), 0.821 µM. In addition, on human STING, the pKd is 8.54.

In the case of `CCc1nc(C)oc1C(=O)Nc1nc2cc(CO)cc(OC)c2n1C/C=C/Cn1c(NC(=O)c2oc(C)nc2CC)nc2cc(C(N)=O)cc(OCCCN3CCOCC3)c21` [Compound XLII, (E)-N-(5-carbamoyl-1-(4-(2-(4-ethyl-2-methyloxazole-5-carboxamido)-5-(hydroxymethyl)-7-methoxy-1H-benzo[d]imidazol-1-yl)but-2-en-1-yl)-7-(3-morpholinopropoxy)-1H-benzo[d]imidazol-2-yl)-4-ethyl-2-methyloxazole-5-carboxamide], the figures for the negative-log EC50 (pEC50) in series [1] (setting [5]) and in series [1] (setting [6]) were 6.48 and 6.54, respectively. The EC50 in series [2] (setting [7]) was determined as 26 nM; in series [2] (setting [8]), 14 nM.

The values above are taken from patent publication US20260242366A1, “STING AGONISTS CONTAINING HYDRAZIDE, HYDRAZINE, AND HYDROXAMIC ACID FUNCTIONAL GROUPS” (BioNTech SE, priority 2023, published 2026).
